For 22 molecules, Ki results are on record in patent US8614206B2 (Genentech, Inc., priority 2011, dated 2013).

Chain of PIM1 (P11309 whole entry): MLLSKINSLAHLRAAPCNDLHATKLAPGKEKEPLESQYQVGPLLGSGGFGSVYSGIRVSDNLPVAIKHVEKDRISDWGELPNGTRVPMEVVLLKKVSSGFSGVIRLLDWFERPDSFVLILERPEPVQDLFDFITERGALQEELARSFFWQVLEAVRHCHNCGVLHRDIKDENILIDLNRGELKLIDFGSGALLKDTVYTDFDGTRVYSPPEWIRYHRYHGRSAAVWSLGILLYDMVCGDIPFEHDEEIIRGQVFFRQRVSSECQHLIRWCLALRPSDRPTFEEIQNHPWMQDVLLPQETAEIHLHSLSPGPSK

The assay addresses PIM1 (Homo sapiens (Human), UniProt P11309). The assay can be described thus: Pim kinase inhibition, PIM1 LC3K (Example 901). Type of assay: biochemical.
Text: Determination of the Pim kinase activity of a Formula I compound is possible by a number of direct and indirect detection methods.
Broadly, the Ki is the dissociation constant of the complex between target and ligand, obtained from inhibition or displacement. `Cn1ncc(NC(=O)c2nc(-c3ccccc3F)ccc2N)c1N1CCC(N)CC(F)(F)C1` (racemic) [Example 292, 3-amino-N-(5-(5-amino-3,3-difluoroazepan-1-yl)-1-methyl-1H-pyrazol-4-yl)-6-(2-fluorophenyl)picolinamide] came in with a Ki of 0.021 nM. Molecule `Cn1ncc(NC(=O)c2nc(-c3ccccc3F)cnc2N)c1N1CCC(N)CC(F)(F)C1` (racemic) [Example 293, 3-amino-N-(5-(5-amino-3,3-difluoroazepan-1-yl)-1-methyl-1H-pyrazol-4-yl)-6-(2-fluorophenyl)pyrazine-2-carboxamide] came in with a Ki of 0.023 nM. In turn, `Cn1ncc(NC(=O)c2nc(-c3ccccc3F)sc2N)c1N1CCNCC2(CCO2)C1` (racemic) [Example 477, 5-amino-2-(2-fluorophenyl)-N-[1-methyl-5-(1-oxa-6,9-diazaspiro[3.6]decan-6-yl)pyrazol-4-yl]thiazole-4-carboxamide] registered a Ki of 0.188 nM. Molecule `Cn1ncc(NC(=O)c2nc(-c3ccccc3F)cnc2N)c1N1CCC(N)C(F)CC1` (single isomer, unassigned) [Example 243, 3-amino-N-(5-(4-amino-5-fluoroazepan-1-yl)-1-methyl-1H-pyrazol-4-yl)-6-(2-fluorophenyl)pyrazine-2-carboxamide] yielded a Ki of 0.123 nM.

`Cn1ncc(NC(=O)c2nc(-c3ccccc3F)cnc2N)c1N1CCC(N)C(F)CC1` (single isomer, unassigned) [Example 244, 3-amino-N-(5-(4-amino-5-fluoroazepan-1-yl)-1-methyl-1H-pyrazol-4-yl)-6-(2-fluorophenyl)pyrazine-2-carboxamide]: affinity was put at a Ki of 0.141 nM. As for `Cn1ncc(NC(=O)c2nc(-c3ccccc3F)ccc2N)c1N1CCC(N)C(F)CC1` (single isomer, unassigned) [Example 245, 3-amino-N-(5-(4-amino-5-fluoroazepan-1-yl)-1-methyl-1H-pyrazol-4-yl)-6-(2-fluorophenyl)picolinamide], the Ki came out at 0.173 nM.

Regarding `Cn1ncc(NC(=O)c2nc(-c3ccccc3F)ccc2N)c1N1CCC(N)C(F)CC1` (single isomer, unassigned) [Example 246, 3-amino-N-(5-(4-amino-5-fluoroazepan-1-yl)-1-methyl-1H-pyrazol-4-yl)-6-(2-fluorophenyl)picolinamide], the Ki stood at 0.149 nM. Next, `Cn1ncc(NC(=O)c2nc(-c3ccccc3F)cnc2N)c1N1CC[C@@H](N)CC(F)(F)C1` (single isomer, unassigned) [Example 248]: 0.007 nM; `Nc1sc(-c2c(F)cccc2F)nc1C(=O)Nc1cnn(CC(F)F)c1N1CC[C@H](N)CC(F)(F)C1` (single isomer, unassigned) [Example 280]: 0.01 nM.

Molecule `Nc1sc(-c2c(F)cccc2F)nc1C(=O)Nc1cnn(C2CC2)c1N1CCC(N)C(F)CC1` (single isomer, unassigned) [Example 332, 5-amino-N-[5-(4-amino-5-fluoro-azepan-1-yl)-1-cyclopropyl-pyrazol-4-yl]-2-(2,6-difluorophenyl)thiazole-4-carboxamide] yielded a Ki of 0.148 nM. In the case of `CCn1ncc(NC(=O)c2nc(-c3c(F)cccc3F)sc2N)c1N1CCC(N)C(F)CC1` (single isomer, unassigned) [Example 369, 5-amino-N-[5-(4-amino-5-fluoro-azepan-1-yl)-1-ethyl-pyrazol-4-yl]-2-(2,6-difluorophenyl)thiazole-4-carboxamide], the Ki came out at 0.178 nM. On to `CCn1ncc(NC(=O)c2nc(-c3ccccc3F)sc2N)c1N1CCC(N)C(F)CC1` (single isomer, unassigned) [Example 373, 5-amino-N-[5-(4-amino-5-fluoro-azepan-1-yl)-1-ethyl-pyrazol-4-yl]-2-(2-fluorophenyl)thiazole-4-carboxamide], for which the Ki was 0.373 nM. On to `CCn1ncc(NC(=O)c2nc(-c3ccccc3F)sc2N)c1N1CCC(N)C(F)CC1` (single isomer, unassigned) [Example 374, 5-amino-N-[5-(4-amino-5-fluoro-azepan-1-yl)-1-ethyl-pyrazol-4-yl]-2-(2-fluorophenyl)thiazole-4-carboxamide], for which affinity was put at a Ki of 0.346 nM. In turn, `CCn1ncc(NC(=O)c2nc(-c3c(F)cccc3F)sc2N)c1N1CCC(N)C(OC)CC1` (single isomer, unassigned) [Example 389, 5-amino-N-[5-(4-amino-5-methoxy-azepan-1-yl)-1-ethyl-pyrazol-4-yl]-2-(2,6-difluorophenyl)thiazole-4-carboxamide] yielded a Ki of 0.624 nM.

On to `COC1CCN(c2c(NC(=O)c3nc(-c4c(F)cccc4F)sc3N)cnn2C2CC2)CCC1N` (single isomer, unassigned) [Example 401, 5-amino-N-[5-(4-amino-5-methoxy-azepan-1-yl)-1-cyclopropyl-pyrazol-4-yl]-2-(2,6-difluorophenyl)thiazole-4-carboxamide], for which affinity was put at a Ki of 0.059 nM. Next, `COC1CCN(c2c(NC(=O)c3nc(-c4c(F)cccc4F)sc3N)cnn2C2CC2)CCC1N` (single isomer, unassigned) [Example 402, 5-amino-N-[5-(4-amino-5-methoxy-azepan-1-yl)-1-cyclopropyl-pyrazol-4-yl]-2-(2,6-difluorophenyl)thiazole-4-carboxamide]: 0.126 nM.

In turn, `COC1CCN(c2c(NC(=O)c3nc(-c4c(F)cccc4F)sc3N)cnn2C2CC2)CCC1N` (single isomer, unassigned) [Example 403, 5-amino-N-[5-(4-amino-5-methoxy-azepan-1-yl)-1-cyclopropyl-pyrazol-4-yl]-2-(2,6-difluorophenyl)thiazole-4-carboxamide] gave a Ki of 0.21 nM.

The molecule `COC1CCN(c2c(NC(=O)c3nc(-c4c(F)cccc4F)sc3N)cnn2C2CC2)CCC1N` (single isomer, unassigned) [Example 404, 5-amino-N-[5-(4-amino-5-methoxy-azepan-1-yl)-1-cyclopropyl-pyrazol-4-yl]-2-(2,6-difluorophenyl)thiazole-4-carboxamide] registered a Ki of 0.036 nM. Next, `Cn1ncc(NC(=O)c2nc(-c3ccccc3F)sc2N)c1N1CCNC[C@]2(CCO2)C1` (single isomer, unassigned) [Example 481]: 0.496 nM; `Cn1ncc(NC(=O)c2nc(-c3c(F)cccc3F)sc2N)c1N1CCC(N)C2(CCO2)CC1` (single isomer, unassigned) [Example 497, 5-amino-N-[5-(5-amino-1-oxa-8-azaspiro[3.6]decan-8-yl)-1-methyl-pyrazol-4-yl]-2-(2,6-difluorophenyl)thiazole-4-carboxamide]: 0.268 nM.

Regarding `Cn1ncc(NC(=O)c2nc(-c3c(F)cccc3F)sc2N)c1N1CCC(N)C2(CCO2)CC1` (single isomer, unassigned) [Example 498, 5-amino-N-[5-(5-amino-1-oxa-8-azaspiro[3.6]decan-8-yl)-1-methyl-pyrazol-4-yl]-2-(2,6-difluorophenyl)thiazole-4-carboxamide], the Ki stood at 0.038 nM.

`Cn1ncc(NC(=O)c2nc(-c3c(F)cccc3F)sc2N)c1N1CCC(N)C2(CCO2)CC1` (single isomer, unassigned) [Example 501, 5-amino-N-[5-(5-amino-1-oxa-8-azaspiro[3.6]decan-8-yl)-1-methyl-pyrazol-4-yl]-2-(2,6-difluorophenyl)thiazole-4-carboxamide] came in with a Ki of 0.025 nM.
